Results published in US10653642B2, “Compositions and methods for the treatment of tauopathies” (UNIVERSITY OF SOUTH FLORIDA, priority 2017, dated 2020).

Tests used:
Format in all cases: cell-based
endogenous tau = assay: Western blot of tau levels in M17 neuroblastoma cells
Method: (§1) It was examined whether hexachlorophene can regulate levels of tau in cellular models. Three different cells lines were treated with hexachlorophene at various different doses. M17 neuroblastoma cells were treated with 1 μM, 2 μM, 3 μM, 5 μM, and 10 μM hexachlorophene. HeLa C3 cells were treated with 0.5 μM, 1 μM, 2 μM, 3 μM, and 5 μM hexachlorophene. iHEK280 cells (an inducible tau model) were treated with 0.5 μM, 1 μM, 1.5 μM, 2 μM, and 2.5 μM hexachlorophene. Cell lysates were analyzed by Western blotting for total tau, phosphorylated tau, and actin (as a control). We also analyzed the effect of hexachlorophene on various pathological forms of tau such as the phosphoserine 396 tau form that localizes to the soluble fraction. Hexachlorophene was purchased from Sigma-Aldrich (St. Louis, Mo.). BE(2) M17 neuroblastoma cells were purchased from ATCC (Manassas, Va.). HeLa C3 cells were generated according to Jinwal et al. (J. Neurosci. 2009, 29, 12079-12088). iHEK cells were generated according to Abisambra et al. (J. Neurosci. 2013, 33, 9498-9507). Neuro-2a (N2a) mouse neuroblastoma cells overexpressing human tau-GFP were generated in house.

human tau-GFP [1] = assay: Western blot of tau in Neuro-2a (N2a) mouse neuroblastoma cells overexpressing human tau-GFP; details: nanomolar concentrations, 24 hours
Method: as §1
Neuro-2a (N2a) mouse neuroblastoma cells overexpressing human tau-GFP were examined for the effect of hexachlorophene on tau protein using Western blot analysis. […]

human tau-GFP [2] = assay: Immunofluorescence and confocal microscopy of Neuro-2a cells overexpressing human tau-GFP; details: N2a cells, immunofluorescence, 0.1-3 μM, 24 hours
Excerpt: Neuro-2a (N2a) mouse neuroblastoma cells overexpressing human tau-GFP were examined for the effect of hexachlorophene on tau protein using Western blot analysis. […] Immunofluorescence and confocal microscopy were also used to analyze the effect of hexachlorophene on the cells.

inducible tau = assay: Western blot of tau levels in iHEK280 cells (inducible tau model); details: for levels of phosphorylated tau / levels of total tau: 0.5-2.5 μM
Method: as §1

tau aggregates = assay: Thioflavin-S staining of tau aggregates in HEK280 cells
Method: We examined the effect of hexachlorophene on tau aggregation using thioflavin-S staining. Thioflavin S is a mixture of compounds that results from the methylation of dehydrothiotoluidine with sulfonic acid, and it is used to stain tau aggregates. Upon binding tau aggregates, thioflavin S gives a distinct increase in fluorescence emission. Thioflavin-S staining was performed by incubating HEK280 cells with 0.1% thioflavin-S for 5 min, with or without 1 μM hexachlorophene. Cells were also labelled with a primary rabbit polyclonal Tau Antibody diluted with 5% goat serum and a secondary anti-rabbit antibody labeled with red. Cells containing distinct thioflavin-S signals indicating the presence of aggregated protein were scored in many independent fields containing a total of 500 cells.

over-expressed tau = biological target: T1, over-expressed tau (Homo sapiens, UniProt P10636); assay: Western blot of tau levels in HeLa C3 cells with over-expressed tau; details: for phosphorylated tau levels / total tau levels: 0.5-5 μM
T1 construct: expressed in transfected cells; host or cells: HeLa C3 cells
Method: as §1

[3] = 24 hours, listed as Hexachlorophene

T1 sequence (P10636 1-383 isoform P10636-6): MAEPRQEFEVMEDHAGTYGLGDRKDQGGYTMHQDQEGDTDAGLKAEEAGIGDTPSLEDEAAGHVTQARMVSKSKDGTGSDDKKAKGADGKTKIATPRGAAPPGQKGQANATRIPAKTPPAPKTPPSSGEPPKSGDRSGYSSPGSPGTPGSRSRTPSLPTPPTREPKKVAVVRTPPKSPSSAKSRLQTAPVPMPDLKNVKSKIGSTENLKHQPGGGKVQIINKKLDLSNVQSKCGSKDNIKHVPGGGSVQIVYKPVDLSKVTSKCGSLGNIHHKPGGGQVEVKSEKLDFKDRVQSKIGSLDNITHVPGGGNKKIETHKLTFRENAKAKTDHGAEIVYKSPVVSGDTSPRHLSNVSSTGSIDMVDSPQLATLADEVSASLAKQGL

Oc1c(Cl)cc(Cl)c(Cl)c1Cc1c(O)c(Cl)cc(Cl)c1Cl [hexachlorophene]
significantly reduced: phosphorylated form of endogenous tau (endogenous tau; 1-10 μM, 24 hours) | levels of endogenous (total) tau (endogenous tau; 1-10 μM, 24 hours, listed as Hexachlorophene) | levels of phosphorylated tau (inducible tau; [3]) | levels of total tau (inducible tau; [3]) | phosphorylated tau levels (over-expressed tau; [3]) | total tau levels (over-expressed tau; [3])
partially cleared: total tau (inducible tau; 1.5 μM, 24 hours) | total tau (over-expressed tau; 2 μM, 24 hours)
completely cleared: phosphorylated (Pser396) tau proteins (endogenous tau; 10 μM, 24 hours) | phosphorylated tau (Pser396) (inducible tau; 1.5 μM, 24 hours) | phosphorylated tau (Pser396) (over-expressed tau; 2 μM, 24 hours)
reduced: phosphorylated tau (Pser396 & Pser199) (human tau-GFP [1]) | total tau protein (human tau-GFP [1]) | phosphorylated tau (Pser396 and Pser199) (human tau-GFP [2]) | total tau protein (human tau-GFP [2]) | tau aggregates (thioflavin-S signal) (tau aggregates; 24 hours)
decreased: levels of phosphorylated serine 396 tau in the soluble fraction (endogenous tau) | levels of endogenous (total) tau (endogenous tau; 1-10 μM, 24 hours) | levels of phosphorylated serine 396 tau in the soluble fraction (inducible tau) | levels of phosphorylated tau (inducible tau; 24 hours) | levels of total tau (inducible tau; 24 hours) | levels of phosphorylated serine 396 tau in the soluble fraction (over-expressed tau) | phosphorylated tau levels (over-expressed tau; 24 hours) | total tau levels (over-expressed tau; 24 hours)
significant reduction: tau aggregation (thioflavin-S staining) (tau aggregates; 1 μM)
cleared: phosphorylated tau (Pser396) levels (inducible tau; 2 μM, 24 hours) | total tau protein (inducible tau; 2 μM, 24 hours)
